According to patent publication US20260139006A1, “CYCLIC PEPTIDE AS INHIBITORS OF FREE-LIVING AMOEBA” (Purdue Research Foundation, priority 2024, published 2026):

Assay: Mammalian cytotoxicity counter screening (CellTiter-Glo)
Type: cell-based
Details: human; read-out: A549 IC50 (cytotoxicity)
Protocol: Cytotoxicity of the cyclic peptides was also determined by using the CellTiter-Glo 2.0® assay on A549 human lung carcinoma cells. A549 cells were seeded at a concentration of 1.6×10^4 cells/mL in 96-well plates in the presence of serially diluted compounds, as described above. DMSO (1%) and 100 μM of chlorhexidine were used as the negative and positive controls. A549 were grown in F12K medium supplemented with 10% FBS and 1% penicillin/streptomycin antibiotics. […] The total volume of each well was 100 μL, containing 10 μL compounds and 90 μL cells, and plates were incubated at 37° C., 5% CO2 for 72 hours. At the 72-hours time point, CellTiter-Glo 2.0 Reagent® was added to all the wells and read by the SpectraMax® i3X plate reader as described above. Curve fitting using non-linear regression was carried out using the average of replicates and the Levenberg-Marquardt algorithm, using DMSO as the normalization control, as defined in CDD Vault. The selectivity index (SI) was calculated by using the equation: SI=(IC50 of A549's)/(IC50 of Balamuthia mandrillaris) to determine the specificity of inhibitors.

Question: Which IC50 at 72 h does the source give for `N=C(N)c1ccc(OCCCCCOc2ccc(C(=N)N)cc2)cc1` [pentamidine] here?
Answer: 12.8 µM
